Reference: PubChem BioAssay AID206 (DTP/NCI, 2004)
“And” between values parts separate entries of the source, which are not always exact repeats. Equal entries are not always repeated. Results filed as inconclusive are left out.

System: nude mice, HT29 intrarenal xenograft, tumor weight T/C
Test: NCI In Vivo Anticancer Drug Screen. Data for tumor model HT29;CX-1 Human Adenocarcinoma (MER+) (intrarenal inoculation) in NU/NU Swiss (nude) mice
Conditions: endpoint: mean tumor weight change, higher = larger tumour
Procedure, shortened: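 T/C = treated-group value ÷ vehicle-group value, using tumor size or survival.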

[1] = dose: 600.0 mg/kg/injection, schedule: Q04DX004 (sc), vehicle: saline with Tween-80
[2] = dose: 1200.0 mg/kg/injection, schedule: Q04DX004 (sc), vehicle: saline with Tween-80
[3] = dose: 0.13 mg/kg/injection, schedule: Q01DX010 (sc), vehicle: saline

SMILES: BrC1CC(Br)c2c1c1c(c3c2C(Br)CC3Br)C(Br)CC1Br (centres undefined)
- T/C (dose: 225.0 mg/kg/injection, schedule: Q04DX004 (sc), vehicle: water): 76 % of control
- T/C (dose: 300.0 mg/kg/injection, schedule: Q04DX004 (sc), vehicle: water): 84 % of control
- T/C (dose: 450.0 mg/kg/injection, schedule: Q04DX004 (sc), vehicle: water): 157 % of control
- T/C (dose: 900.0 mg/kg/injection, schedule: Q04DX004 (sc), vehicle: water): 158 % of control
- T/C (dose: 1200.0 mg/kg/injection, schedule: Q04DX004 (sc), vehicle: water): 116 % of control
- T/C (dose: 1800.0 mg/kg/injection, schedule: Q04DX004 (sc), vehicle: water): 22 % of control

SMILES: Cc1cc2nc3c(=O)[nH]c(=O)nc-3n(CC(O)C(O)C(O)C(O)CO)c2cc1C (centres undefined)
- T/C [1]: 94 % of control
- T/C [2]: 78 % of control
- T/C (dose: 2400.0 mg/kg/injection, schedule: Q04DX004 (sc), vehicle: saline with Tween-80): 90 % of control

SMILES: Cc1ccc(S(=O)(=O)NC(=S)S)cc1
- T/C (dose: 100.0 mg/kg/injection, schedule: Q01DX010 (sc), vehicle: saline with Tween-80): 110 % of control
- T/C (dose: 200.0 mg/kg/injection, schedule: Q01DX010 (sc), vehicle: saline with Tween-80): 191 % of control

SMILES: CSC1SCC2C(=O)N(C)C(C(C)C)C(=O)OCC(NC(=O)c3cnc4ccccc4n3)C(=O)NC(C)C(=O)N(C)C1C(=O)N(C)C(C(C)C)C(=O)OCC(NC(=O)c1cnc3ccccc3n1)C(=O)NC(C)C(=O)N2C (centres undefined)
- T/C (dose: 30.0 micrograms/kg/injection, schedule: Q01DX010 (sc), vehicle: suspension in saline): 88 % of control
- T/C (dose: 60.0 micrograms/kg/injection, schedule: Q01DX010 (sc), vehicle: saline): 49 % of control
- T/C (dose: 120.0 micrograms/kg/injection, schedule: Q01DX010 (sc), vehicle: saline): 35 % of control
- T/C (dose: 240.0 micrograms/kg/injection, schedule: Q01DX010 (sc), vehicle: saline): 12 % of control

SMILES: Cc1ccc(C2NC(=S)N3C(c4ccc(C)cc4)NC(=S)N23)cc1 (centres undefined)
- T/C (dose: 300.0 mg/kg/injection, schedule: Q04DX004 (sc), vehicle: Klucel (hydroxypropylcellulose) (HPC)): 75 % of control
- T/C (dose: 600.0 mg/kg/injection, schedule: Q04DX004 (sc), vehicle: Klucel (hydroxypropylcellulose) (HPC)): 80 % of control
- T/C (dose: 1200.0 mg/kg/injection, schedule: Q04DX004 (sc), vehicle: Klucel (hydroxypropylcellulose) (HPC)): 69 % of control
- T/C (dose: 2400.0 mg/kg/injection, schedule: Q04DX004 (sc), vehicle: Klucel (hydroxypropylcellulose) (HPC)): 75 % of control

SMILES: NC1=NC(=O)N2CC12 (centres undefined)
- T/C (dose: 50.0 mg/kg/injection, schedule: Q04DX004 (sc), vehicle: saline): 103 % of control
- T/C (dose: 100.0 mg/kg/injection, schedule: Q04DX004 (sc), vehicle: saline): 85 % of control
- T/C (dose: 200.0 mg/kg/injection, schedule: Q04DX004 (sc), vehicle: saline): 79 % of control

SMILES: COc1ccc(/C=C/C(=O)c2cc(C(=O)O)c(OC)cc2OC)cc1OC
- T/C (dose: 225.0 mg/kg/injection, schedule: Q04DX004 (sc), vehicle: suspension in saline): 82 % of control
- T/C (dose: 450.0 mg/kg/injection, schedule: Q04DX004 (sc), vehicle: suspension in saline): 102 % of control
- T/C (dose: 900.0 mg/kg/injection, schedule: Q04DX004 (sc), vehicle: suspension in saline): 88 % of control

SMILES: CCc1ccc(C2=C(O)C(=O)C(c3ccccc3)=C(O)C2=O)cc1
- T/C (dose: 75.0 mg/kg/injection, schedule: Q04DX004 (sc), vehicle: Klucel (hydroxypropylcellulose) (HPC)): 159 % of control

SMILES: NC(=O)c1ncn2c(=O)n(CCCl)nnc12
- T/C (dose: 25.0 mg/kg/injection, schedule: Q04DX004 (sc), vehicle: suspension in saline): 214 % of control
- T/C (dose: 50.0 mg/kg/injection, schedule: Q04DX004 (sc), vehicle: suspension in saline): 72 % of control

SMILES: CCCCC1CCCCCCc2[nH]c(/C=C3\N=C(c4ccc[nH]4)C=C3OC)cc21 (centres undefined)
- T/C (dose: 16.0 mg/kg/injection, schedule: Q04DX004 (sc), vehicle: saline with Tween-80): 200 % of control

SMILES: CCS/C(SC)=C(/c1ccccc1)[P+](c1ccccc1)(c1ccccc1)c1ccccc1
- T/C (dose: 18.75 mg/kg/injection, schedule: Q04DX004 (sc), vehicle: Klucel (hydroxypropylcellulose) (HPC)): 93 % of control

SMILES: COc1ccc2c(NCCCCCCNc3c4ccccc4nc4cc(OC)ccc34)c3ccccc3nc2c1
- T/C (dose: 0.62 mg/kg/injection, schedule: Q01DX010 (sc), vehicle: lactic acid): 87 % of control
- T/C (dose: 1.25 mg/kg/injection, schedule: Q01DX010 (sc), vehicle: lactic acid): 73 % of control
- T/C (dose: 2.5 mg/kg/injection, schedule: Q01DX010 (sc), vehicle: lactic acid): 71 % of control
- T/C (dose: 30.0 mg/kg/injection, schedule: Q01DX010 (sc), vehicle: lactic acid): 71 % of control

SMILES: COC1=C(N)C(=O)c2nc(-c3nc(C(=O)O)c(C)c(-c4ccc(OC)c(OC)c4O)c3N)ccc2C1=O
- T/C [3]: -33 % of control
- T/C (dose: 0.5 mg/kg/injection, schedule: Q01DX010 (sc), vehicle: saline): -10 % of control

SMILES: C[PH+](C)C.C[PH+](C)C.[Au]
- T/C (dose: 2.5 mg/kg/injection, schedule: Q04DX004 (sc), vehicle: saline): 108 % of control
- T/C (dose: 20.0 mg/kg/injection, schedule: Q04DX004 (sc), vehicle: saline): 42 % of control and 65 % of control

SMILES: CS(=O)(=O)OCCN(CCOS(C)(=O)=O)c1ccc(C=O)cc1
- T/C (dose: 12.5 mg/kg/injection, schedule: Q01DX010 (sc), vehicle: saline): 100 % of control
- T/C (dose: 25.0 mg/kg/injection, schedule: Q01DX010 (sc), vehicle: saline): 90 % of control
- T/C (dose: 50.0 mg/kg/injection, schedule: Q01DX010 (sc), vehicle: saline): 37 % of control

SMILES: COc1cc(C(=O)N/N=C/c2cccc([N+](=O)[O-])c2)cc(OC)c1OC
- T/C (dose: 150.0 mg/kg/injection, schedule: Q04DX004 (sc), vehicle: saline with Tween-80): 91 % of control
- T/C [1]: 70 % of control
- T/C [2]: 120 % of control

SMILES: c1ccc2c(NCCCCCCCCNc3c4ccccc4nc4ccccc34)c3ccccc3nc2c1
- T/C (dose: 10.0 mg/kg/injection, schedule: Q01DX010 (sc), vehicle: Klucel (hydroxypropylcellulose) (HPC)): 67 % of control
- T/C (dose: 20.0 mg/kg/injection, schedule: Q01DX010 (sc), vehicle: Klucel (hydroxypropylcellulose) (HPC)): 44 % of control
- T/C (dose: 40.0 mg/kg/injection, schedule: Q01DX010 (sc), vehicle: Klucel (hydroxypropylcellulose) (HPC)): 82 % of control

SMILES: COc1c(O)c2c(c3cc(C(=O)N4CCc5c4c(O)c(OC)c4[nH]c(C(=O)N6CC7CC78C6=CC(=O)c6[nH]cc(C)c68)cc54)[nH]c13)CCN2C(N)=O (centres undefined)
- T/C (dose: 6.25 micrograms/kg/injection, schedule: Q01DX010 (sc), vehicle: DMSO): 96 % of control
- T/C (dose: 12.5 micrograms/kg/injection, schedule: Q01DX010 (sc), vehicle: DMSO): 108 % of control
- T/C (dose: 25.0 micrograms/kg/injection, schedule: Q01DX010 (sc), vehicle: DMSO): 65 % of control
- T/C (dose: 50.0 micrograms/kg/injection, schedule: Q01DX010 (sc), vehicle: DMSO): 89 % of control

SMILES: [Cl][Mn][Cl]
- T/C (dose: 18.75 mg/kg/injection, schedule: Q04DX004 (sc), vehicle: saline): 182 % of control
- T/C (dose: 75.0 mg/kg/injection, schedule: Q04DX004 (sc), vehicle: saline): 171 % of control
- T/C (dose: 150.0 mg/kg/injection, schedule: Q04DX004 (sc), vehicle: saline): 121 % of control

SMILES: CC[C@]1(O)C[C@H]2CN(CCc3c([nH]c4ccccc34)[C@@](C(=O)OC)(c3cc4c(cc3OC)N(C=O)[C@H]3[C@@](O)(C(=O)OC)[C@H](OC(C)=O)[C@]5(CC)C=CCN6CC[C@]43[C@@H]65)C2)C1
- T/C [3]: 86 % of control
- T/C (dose: 0.25 mg/kg/injection, schedule: Q01DX010 (sc), vehicle: saline): 84 % of control

SMILES: Cc1ccc2nc(-c3ccc4nc(-c5ccc(N=Nc6ccc(-c7nc8ccc(-c9nc%10ccc(C)c(S(=O)(=O)O)c%10s9)cc8s7)cc6)cc5)sc4c3)sc2c1S(=O)(=O)O
- T/C (dose: 200.0 mg/kg/injection, schedule: Q04DX004 (sc), vehicle: suspension in saline): 190 % of control
- T/C (dose: 400.0 mg/kg/injection, schedule: Q04DX004 (sc), vehicle: suspension in saline): 109 % of control
- T/C (dose: 800.0 mg/kg/injection, schedule: Q04DX004 (sc), vehicle: suspension in saline): 221 % of control
- T/C (dose: 1600.0 mg/kg/injection, schedule: Q04DX004 (sc), vehicle: suspension in saline): 50 % of control

SMILES: COC1/C=C/O[C@@]2(C)Oc3c(C)c(O)c4c(O)c(cc(O)c4c3C2=O)NC(=O)/C(C)=C\C=C\[C@H](C)C(O)[C@@H](C)[C@@H](O)[C@@H](C)[C@H](OC(C)=O)[C@@H]1C (some centres undefined)
- T/C (dose: 150.0 mg/kg/injection, schedule: Q04DX004 (sc), vehicle: suspension in saline): 72 % of control
- T/C (dose: 300.0 mg/kg/injection, schedule: Q04DX004 (sc), vehicle: suspension in saline): 69 % of control

SMILES: O=C(O)C1(C(=O)O)CCC1.[NH2-].[NH2-].[Pt+2]
- T/C (dose: 25.0 mg/kg/injection, schedule: Q01DX010 (sc), vehicle: dextrose): 66 % of control and 91 % of control
- T/C (dose: 50.0 mg/kg/injection, schedule: Q01DX010 (sc), vehicle: dextrose): 17 % of control
